In US20220017572A1, “GEMINOID LIPOPEPTIDE COMPOUNDS AND THEIR USES” (Erasmus University Medical Center Rotterdam, priority 2016, published 2022):
Residues, ends and D or L forms follow the SMILES beside them.

Key:
dengue 2 protease [1] = target: T1, dengue 2 protease (Dengue virus type 2, UniProt P14340); experiment: Dengue 2 protease inhibition, hydrolysis of Z-RR-MCA; format: biochemical, dengue 2 virus; design: unit not given here; details: 10 μM Z-RR-MCA, pH 9.0, 37° C., initial activity in UAF/min
T1 construct: The active site of the dengue protease is in the N-terminal part of NS3
T1 sequence (P14340 1476-1653): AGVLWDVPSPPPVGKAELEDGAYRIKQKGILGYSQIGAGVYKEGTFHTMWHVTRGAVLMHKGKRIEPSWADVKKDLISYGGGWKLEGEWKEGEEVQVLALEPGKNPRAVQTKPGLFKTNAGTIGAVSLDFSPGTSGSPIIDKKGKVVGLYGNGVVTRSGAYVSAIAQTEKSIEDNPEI

dengue 2 protease [2] = target: T1, dengue 2 protease; experiment: as above; format: biochemical, dengue 2 virus; design: Activity with inhibitors: unit not given here; details: for activity at 5 µM: 5 μM inhibitor; for activity at 10 µM: 10 μM inhibitor; for activity at 15 µM: 15 μM inhibitor; for activity at 40 µM: 40 μM inhibitor
Experimental: The active site of the dengue protease is in the N-terminal part of NS3 which is also a serine protease with catalytic triad Asp79-His51-Ser135, but requires […] (CF40) for activity; the inhibition reported here was studied on a […] (CF40-GGGGSGGGG-NS3; (SEQ ID NO:54)) which has also been structurally characterized [Erbel et al., 2006; Luo et al. 2008].
(§1) Substrate was added in a concentration 10 times the Km, and the inhibitor compounds of type C (C16-KGnK-C16, C16-KAnK-C16, and C16-RAnR-C16) were added in increasing concentrations (1.0, 5.0, 10.0, 20.0, 40.0 μL) from a stock solution of 2 mg in 1 mL DMSO. The residual activity was measured in a Hitachi F2500 spectrofluorimeter, and plots were fitted using the Grafit® software (Erithracus Software, Horley, Surrey, UK). All the assays were calculated by the Morrison equation for competitive inhibition (eq. 1, [Morrison, 1969]). The amount of substrate used for the tight binding titration experiments follow all the requirements, where [S]<<Km for all enzymes, so the Kiapp=Ki.
(§2) Range of Proteases Inhibited by Geminoids, Determination of Ki with Z-RR-MCA (Dengue 2 Protease) and Ac-RVRR-MCA (Furin) (SEQ ID NO:60).

trypsin = target: T2, trypsin (Bos taurus, UniProt P00760); experiment: Trypsin inhibition, fluorimetric enzyme assay; format: biochemical; details: for remaining activity at 15 µM: 15 μM inhibitor
T2 construct: gene PRSS1
T2 sequence (P00760 24-246): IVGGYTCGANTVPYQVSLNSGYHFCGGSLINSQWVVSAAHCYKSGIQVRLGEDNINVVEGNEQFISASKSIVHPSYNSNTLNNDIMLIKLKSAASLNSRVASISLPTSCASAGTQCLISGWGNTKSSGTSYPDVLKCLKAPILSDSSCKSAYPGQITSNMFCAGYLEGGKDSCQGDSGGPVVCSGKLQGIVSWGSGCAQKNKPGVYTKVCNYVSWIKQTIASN
Experimental: as §1, with “The enzyme was dissolved in 1 mL MES buffer (10 mM), 1 mM CaCl2, pH 7.0 at 36.5° C. Substrate” for “Substrate”
The first group of gemini-like peptide amphiphiles to be screened was that of C16-K(G or A)nK-C16 (compound type C, with R1=n-C15H31, R2=n-C16H33). […] The results of the Ki determination for trypsin, dengue 2 protease, and human furin are given in Table 1A; some general data for the inhibition by this type of compounds are given in Table 1B. For most compounds in Table 1 the Ki could be derived from competitive inhibition experiments. Judging from the Ki values with the relatively simple substrate Z-RR-MCA, the best inhibitors for dengue 2 protease contain alanine (A) rather than glycine (G).

human furin = human furin (Homo sapiens, UniProt P09958); experiment: Human furin inhibition, hydrolysis of Ac-RVRR-MCA; format: biochemical; details: for activity at 5 µM: 5 μM inhibitor; for activity at 10 µM: 10 μM inhibitor; for activity at 15 µM: 15 μM inhibitor; for activity at 40 µM: 40 μM inhibitor
human furin, sequence (P09958 108-794): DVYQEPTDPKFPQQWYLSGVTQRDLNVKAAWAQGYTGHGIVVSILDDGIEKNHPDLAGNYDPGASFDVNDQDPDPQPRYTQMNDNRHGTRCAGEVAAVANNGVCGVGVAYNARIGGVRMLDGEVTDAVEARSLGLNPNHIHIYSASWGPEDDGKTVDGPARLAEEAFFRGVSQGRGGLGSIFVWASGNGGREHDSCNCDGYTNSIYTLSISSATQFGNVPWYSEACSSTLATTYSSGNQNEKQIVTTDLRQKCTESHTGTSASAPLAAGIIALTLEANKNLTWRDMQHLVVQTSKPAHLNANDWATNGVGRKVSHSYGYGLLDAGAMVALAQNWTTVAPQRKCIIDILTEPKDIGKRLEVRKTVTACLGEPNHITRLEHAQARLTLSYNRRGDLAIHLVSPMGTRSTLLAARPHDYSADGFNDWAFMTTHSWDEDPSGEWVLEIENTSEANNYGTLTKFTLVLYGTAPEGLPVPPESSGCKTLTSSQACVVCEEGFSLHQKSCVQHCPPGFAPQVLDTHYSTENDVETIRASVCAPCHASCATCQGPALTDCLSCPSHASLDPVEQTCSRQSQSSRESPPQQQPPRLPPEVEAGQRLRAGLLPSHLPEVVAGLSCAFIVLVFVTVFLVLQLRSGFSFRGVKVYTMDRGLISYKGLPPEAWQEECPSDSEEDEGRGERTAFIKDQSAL
Experimental: as §1, with “The enzyme was dissolved in 1 mL MES buffer (10 mM), 1 mM CaCl2, pH 7.0 at 36.5° C. Substrate” for “Substrate”
However, for furin we used a correction of Ki app, where [S]˜Km (eq. 2).
as §2

dengue 2 protease [3] = target: T1, dengue 2 protease; experiment: Dengue 2 protease inhibition in presence of Triton X-100 (detergent test, Nature Protocol); format: biochemical, dengue 2 virus; details: 0.05% Triton X-100; for Activity with 0.05% Triton: initial activity in UAF/min
Source text: A further investigation of the interactions of the geminoid inhibitors with biological membranes and with membrane-bound proteases is needed. […] The preparation and tests of peptides symmetrically, asymmetrically and singly alkylated with saturated, short (C6), and unsaturated (C18:1) alkyl tails are in progress.

DENV2 protease = target: T3, DENV2 protease (Dengue virus type 2, UniProt P14340); experiment: DENV2 protease biochemical assay; details: 50 μM inhibitor
T3 construct: The active site of the dengue protease is in the N-terminal part of NS3
T3 sequence (P14340 1476-1653): as the sequence (P14340 1476-1653) above
T3 sequence (P14340 1398-1437): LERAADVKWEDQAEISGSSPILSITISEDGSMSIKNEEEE

DENV2 protease replicon = DENV2 protease replicon assay; format: cell-based; details: lowest concentration with observed activity in replicon assay
thrombin = thrombin (Homo sapiens, UniProt P00734); experiment: Thrombin inhibition, fluorimetric enzyme assay; format: biochemical; details: 36.5° C., read-out: Residual Activity (%) Thrombin
Experimental: as §1, with “The enzyme was dissolved in 1 mL MES buffer (10 mM), 1 mM CaCl2, pH 7.0 at 36.5° C. Substrate” for “Substrate”, “Kiapp=Ki. […]” for “Kiapp=Ki.”

[4] = 36.5° C., read-out: Residual Activity (%) Trypsin

Row | Structure (SMILES) | Activity with inhibitors (dengue 2 protease [1]; 30 μM of inhibitor) | Ki (dengue 2 protease [2]) | activity at 5 µM (dengue 2 protease [2]; 36.5° C.) | activity at 10 µM (dengue 2 protease [2]; 36.5° C.) | activity at 15 µM (dengue 2 protease [2]; 36.5° C.) | activity at 40 µM (dengue 2 protease [2]; 36.5° C.) | Ki (trypsin) | remaining activity at 15 µM (trypsin; [4]) | activity at 5 µM (human furin; 36.5° C.) | activity at 10 µM (human furin; 36.5° C.) | activity at 15 µM (human furin; 36.5° C.) | activity at 40 µM (human furin; 36.5° C.) | % recovery in presence of Triton (dengue 2 protease [3]; 30 μM of inhibitor) | Activity with 0.05% Triton (dengue 2 protease [3]; 30 μM of inhibitor) | also measured
1 | CCCCCCCCCCCCCCCCNC(=O)[C@H](CCCCN)NC(=O)[C@H](C)NC(=O)[C@H](C)NC(=O)[C@H](C)NC(=O)[C@H](CCCCN)NC(=O)CCCCCCCCCCCCCCC [C16-KAAAK-C16] (HELM PEPTIDE1{[CCCCCCCCCCCCCCCC(=O)[*:2]].K.A.A.A.K.[CCCCCCCCCCCCCCCCN[*:1]]}$$$$V2.0) | 0 | 1410 nM | 85% | 75% | 64% | 25% | 40300 nM | 79% | 56% | 24% | 10% | 0% | 50% | 91 | activity at 2.5 µM (dengue 2 protease [2]; 2.5 μM inhibitor, 36.5° C.): 91%; remaining activity at 40 µM (trypsin; 40 μM inhibitor, 36.5° C., read-out: Residual Activity (%) Trypsin): 54%; remaining activity at 80 µM (trypsin; 80 μM inhibitor, 36.5° C., read-out: Residual Activity (%) Trypsin): 40%; activity at 2.5 µM (human furin; 2.5 μM inhibitor, 36.5° C.): 73%; Ki (human furin; 10 mM Mes.NaOH, pH 7.0, 2.35 μM Ac-RVRR-MCA, 37° C., read-out: Ki hFurin): 1720 nM
2 | CCCCCCCCCCCCCCCCNC(=O)[C@H](CCCCN)NC(=O)CNC(=O)[C@H](CCCCN)NC(=O)CCCCCCCCCCCCCCC [C16-KGK-C16, C15H31CO-KGK-NH—C16H33] | – | 1560 nM | 75% | 54% | 40% | 2% | 41600 nM | 76% | 53% | 18% | 7% | 0% | – | – | inhibition at 50 µM (DENV2 protease): 103%; activity at 20 µM (dengue 2 protease [2]; 20 μM inhibitor, 36.5° C.): 29%; Activity with inhibitors (dengue 2 protease [2]; 25 μM of inhibitor, 10 μM Z-RR-MCA, pH 9.0, 37° C., initial activity in UAF/min): 50; remaining activity at 55 µM (trypsin; 55 μM inhibitor, 36.5° C., read-out: Residual Activity (%) Trypsin): 40%; remaining activity at 85 µM (trypsin; 85 μM inhibitor, 36.5° C., read-out: Residual Activity (%) Trypsin): 24%; Replicon activity [μM] (1) (DENV2 protease replicon): 1.0 µM; activity at 20 µM (human furin; 20 μM inhibitor, 36.5° C.): 4%; % recovery in presence of Triton (dengue 2 protease [3]; 25 μM of inhibitor): 48%; Activity with 0.05% Triton (dengue 2 protease [3]; 25 μM of inhibitor): 90; remaining activity at 15 µM (thrombin; 15 μM inhibitor): 75%; remaining activity at 55 µM (thrombin; 55 μM inhibitor): 61%; remaining activity at 85 µM (thrombin; 85 μM inhibitor): 40%
3 | CCCCCCCCCCCCNC(=O)[C@H](CCCCN)NC(=O)[C@H](C)NC(=O)[C@H](C)NC(=O)[C@H](CCCCN)NC(=O)CCCCCCCCCCC [C12KA2KC12, n-C11H23C(O)-Lys-(Ala)2-Lys-(n-C12H25).2TFA] (HELM PEPTIDE1{[CCCCCCCCCCCC(=O)[*:2]].K.A.A.K.[CCCCCCCCCCCCN[*:1]]}$$$$V2.0) | – | 11600 nM | – | – | – | – | – | – | – | – | – | – | – | – | Activity with inhibitors (dengue 2 protease [1]; 20 μM of inhibitor): 5; % recovery in presence of Triton (dengue 2 protease [3]; 20 μM of inhibitor): 95%; Activity with 0.05% Triton (dengue 2 protease [3]; 20 μM of inhibitor): 216
4 | CCCCCCCCCCCCCCCCNC(=O)[C@H](CCCNC(=N)N)NC(=O)[C@H](C)NC(=O)[C@H](C)NC(=O)[C@H](CCCNC(=N)N)NC(=O)CCCCCCCCCCCCCCC [C16RA2RC16, n-C15H31C(O)-Arg-(Ala)2-Arg-(n-C16H33).2TFA] (HELM PEPTIDE1{[CCCCCCCCCCCCCCCC(=O)[*:2]].R.A.A.R.[CCCCCCCCCCCCCCCCN[*:1]]}$$$$V2.0) | 0 | 2100 nM | – | – | – | – | – | – | – | – | – | – | 61% | 128 | –
